According to patent US20190000976A1, “Purgative Composition” (CTC BIO, INC., priority 2016, published 2019):

Tests used:
[1] = Stability of sodium picosulfate in polyethylene glycol 3350 / sorbitol solution with sodium hydrogencarbonate or sodium citrate, 3 weeks (content by HPLC); format: physicochemical; details: by comprising sodium hydrogencarbonate or sodium citrate
Method: The solution was stored at room temperature or stress condition (60° C., 75%RH) for 3 weeks. The content of sodium picosulfate was evaluated. The content of sodium picosulfate was determined by ‘Sodium picosulfate powder for oral solution’ test method of British Pharmacopoeia using high performance liquid chromatography.

[2] = Stability of sodium picosulfate in solution alone, with polyethylene glycol 4000 or with sorbitol (content by HPLC, British Pharmacopoeia); format: physicochemical
Method: The solution was stored at room temperature, in accelerated condition (40° C., 75%RH), and stress condition (60° C., 75%RH).

Structure (SMILES): O=S(=O)(O)Oc1ccc(C(c2ccc(OS(=O)(=O)O)cc2)c2ccccn2)cc1 [sodium picosulfate]
- Instability of sodium picosulfate caused by mixing with polyethylene glycol (in words) [1]: improved dramatically
- Content (%) of sodium picosulfate, After 1 week Accelerated condition ([2]; 1 week, accelerated condition (40° C., 75%RH)): 102.2%
- Content (%) of sodium picosulfate, After 1 week Room temp. ([2]; 1 week, room temperature): 102.2%
- Content (%) of sodium picosulfate, After 1 week Stress condition ([2]; 1 week, stress condition (60° C., 75%RH)): 102.4%
- Content (%) of sodium picosulfate, After 2 weeks Room temp. ([2]; 2 weeks, room temperature): 102.4%
- Content (%) of sodium picosulfate, After 2 weeks Stress condition ([2]; 2 weeks, stress condition (60° C., 75%RH)): 102.5%
- Content (%) of sodium picosulfate, Initial ([2]; Initial, 300 ml solution): 102.4%
- Stability of sodium picosulfate (in words) ([2]; when mixed with polyethylene glycol): very unstable
